Experiments:
Type in all cases: cell-based
bacteria [1] = assay: PVB dispersion treated with NBDA: microbial contamination by cATP (LuminUltra); set-up: bacteria count: unit not given here
bacteria [2] = assay: Tap water and polluted water treated with NDBA: bacteria count and BSI; settings: 300 grams water, 32° C.
bacteria [3] = assay: NBDA in different PVB dispersions at 32° C., ATP analysis (LuminUltra); set-up: bacteria count 6 mo after adding NBDA / bacteria count 9 mo after adding NBDA / bacteria count 1 d after adding NBDA / bacteria count 1 wk after adding NBDA / bacteria count 1 mo after adding NBDA / bacteria count 3 mo after adding NBDA / bacteria count after 4 mo after addition of NBDA / bacteria count after 6 mo after addition of NBDA: unit not given here; settings: 0.5% NBDA; for bacteria count after 4 mo after addition of NBDA / bacteria count after 4 wk after addition of NBDA / bacteria count after 6 mo after addition of NBDA / bacteria count after 8 wk after addition of NBDA / bacteria count after 9 mo after addition of NBDA / bacteria count after 12 mo after addition of NBDA: long term
Method: The amines selected from stock samples was made from factory prepared stock and sealed solutions delivered in technical quality (95-99.9%). […] Tertiary amine, water and PVB-dispersion was mechanically stirred in IKA vertical fixed blade stirrer for sampling in 2-5 minutes. Conditions was industrial clean, meaning no special precautions was taken to prevent contamination, except normal cleanliness and between operations dishwashing procedures. Working temperatures was 20-25 degre Celsius, and all incubations was made in thermostatic 32-degree Celsius incubator ovens for bottled flasks and open petri dishes. […] The protocol is provided by LuminUltra Technologies. Basically all tested dispersions are manufactured in same way, with only differences in additives, and the variations of origin/source of the waste material (See Example 1). However the specification of the SharkDispersions-all have same basic composition since the stability of the dispersion forces this. The in situ contamination of the production batches may also vary in handling and different storage methods in flasks, IBC's and tanks. In all production the dispersion before treated with tertiary amine is pasteurized due to the general level of production temperatures +90 degrees for several minutes. The biocidal effectivity of NBDA in different PVB dispersions was measured as explained above.

[4] = 0.50% NBDA, 25° C.(RT), after 1 mo
[5] = 0.50% NBDA, 25° C.(RT), after 1 wk
[6] = 0.50% NBDA, 25° C.(RT), after 3 mo
[7] = 0.50% NBDA, 25° C.(RT), after 6 mo
[8] = 0.50% NBDA, 25° C.(RT), after 1 d
[9] = 1.00% NBDA, 25° C.(RT), after 1 mo
[10] = 1.00% NBDA, 25° C.(RT), after 1 wk
[11] = 1.00% NBDA, 25° C.(RT), after 3 mo
[12] = 1.00% NBDA, 25° C.(RT), after 6 mo
[13] = 1.00% NBDA, 25° C.(RT), after 1 d
[14] = PVB dispersion FX2, 32° C., with 0.5% peroxide
[15] = PVB dispersion FX2, 32° C., without peroxide
[16] = PVB dispersion FX6, 32° C., with 0.5% peroxide
[17] = PVB dispersion FX6, 32° C., without peroxide
[18] = PVB dispersion SX, 32° C., with 0.5% peroxide
[19] = PVB dispersion SX, 32° C., without peroxide
[20] = PVB dispersion WX2s, 32° C., with 0.5% peroxide
[21] = PVB dispersion WX2s, 32° C., without peroxide
[22] = PVB dispersion WX, 32° C., with 0.5% peroxide
[23] = PVB dispersion WX, 32° C., without peroxide

## CCCCN(CCO)CCO [NBDA, N-butyldiethanolamine]
Bacteria [1]; [4]
  BSI: 13
  bacteria count: 34.8
  pH: 9.73
Bacteria [1]; [5]
  BSI: 17
  bacteria count: 147
  pH: 9.65
Bacteria [1]; [6]
  BSI: 67
  bacteria count: 22.7
  pH: 9.62
Bacteria [1]; [7]
  BSI: 50
  bacteria count: 5.77
  pH: 9.58
Bacteria [1]; [8]
  BSI: 4
  bacteria count: 2930
  pH: 9.77
Bacteria [1]; 0.50% NBDA, 32° C., after 1 mo
  bacteria count: 9.47
Bacteria [1]; 0.50% NBDA, 32° C., after 1 wk
  bacteria count: 81
Bacteria [1]; 0.50% NBDA, 32° C., after 3 mo
  bacteria count: 5.66
Bacteria [1]; 0.50% NBDA, 32° C., after 1 d
  bacteria count: 215
Bacteria [1]; 0.50% NBDA, 60° C., after 1 mo
  bacteria count: 126
Bacteria [1]; 0.50% NBDA, 60° C., after 1 wk
  bacteria count: 276
Bacteria [1]; 0.50% NBDA, 60° C., after 3 mo
  bacteria count: 4.2
Bacteria [1]; 0.50% NBDA, 60° C., after 1 d
  bacteria count: 420
Bacteria [1]; [9]
  BSI: 10
  bacteria count: 39.1
  pH: 9.86
Bacteria [1]; [10]
  BSI: 24
  bacteria count: 183
  pH: 9.89
Bacteria [1]; [11]
  BSI: 60
  bacteria count: 3.77
  pH: 9.93
Bacteria [1]; [12]
  BSI: 83
  bacteria count: 1.36
  pH: 9.67
Bacteria [1]; [13]
  BSI: 6
  bacteria count: 1530
  pH: 10.2
Bacteria [1]; 1.00% NBDA, 32° C., after 1 mo
  bacteria count: 17.9
Bacteria [1]; 1.00% NBDA, 32° C., after 1 wk
  bacteria count: 13.5
Bacteria [1]; 1.00% NBDA, 32° C., after 3 mo
  bacteria count: 0.94
Bacteria [1]; 1.00% NBDA, 32° C., after 1 d
  bacteria count: 338
Bacteria [1]; 1.00% NBDA, 60° C., after 1 mo
  bacteria count: 202
Bacteria [1]; 1.00% NBDA, 60° C., after 1 wk
  bacteria count: 387
Bacteria [1]; 1.00% NBDA, 60° C., after 3 mo
  bacteria count: 9.3
Bacteria [1]; 1.00% NBDA, 60° C., after 1 d
  bacteria count: 244
Bacteria [1]; concentration 0.5%, long term, RT, 32° C. and 60° C.
  effectiveness as sole biocide additive: highly effective as the sole biocide additive
Bacteria [2]; Polluted water + 0.5%
  BSI: 48
  bacteria count: 56.2
Bacteria [2]; Tapwater + 0.5%
  BSI: 56
  bacteria count: 7.35
Bacteria [3]; [14]
  bacteria count 1 mo after adding NBDA: 22
  bacteria count 1 wk after adding NBDA: 9.9
  bacteria count 3 mo after adding NBDA: 3
  bacteria count 1 d after adding NBDA: 17.6
Bacteria [3]; [15]
  bacteria count 1 mo after adding NBDA: 77.1
  bacteria count 1 wk after adding NBDA: 1.8
  bacteria count 3 mo after adding NBDA: 64
  bacteria count 6 mo after adding NBDA: 15.5
  bacteria count 1 d after adding NBDA: 7.7
Bacteria [3]; [16]
  bacteria count 1 mo after adding NBDA: 0.93
  bacteria count 1 wk after adding NBDA: 239
  bacteria count 3 mo after adding NBDA: 28
  bacteria count 6 mo after adding NBDA: 62
  bacteria count 9 mo after adding NBDA: 15.4
  bacteria count 1 d after adding NBDA: 31.7
Bacteria [3]; [17]
  bacteria count 1 mo after adding NBDA: 0.93
  bacteria count 1 wk after adding NBDA: 25
  bacteria count 3 mo after adding NBDA: 1.4
  bacteria count 6 mo after adding NBDA: 1.1
  bacteria count 9 mo after adding NBDA: 1.51
  bacteria count 1 d after adding NBDA: 48.5
Bacteria [3]; [18]
  bacteria count 1 mo after adding NBDA: 24.2
  bacteria count 1 wk after adding NBDA: 48.1
  bacteria count 3 mo after adding NBDA: 54.6
  bacteria count 6 mo after adding NBDA: 53
  bacteria count 9 mo after adding NBDA: 21.9
  bacteria count 1 d after adding NBDA: 24.3
Bacteria [3]; [19]
  bacteria count 1 mo after adding NBDA: 19.5
  bacteria count 1 wk after adding NBDA: 42.1
  bacteria count 3 mo after adding NBDA: 26
  bacteria count 6 mo after adding NBDA: 9
  bacteria count 9 mo after adding NBDA: 15.7
  bacteria count 1 d after adding NBDA: 17.2
Bacteria [3]; [20]
  bacteria count 1 mo after adding NBDA: 74.9
  bacteria count 1 wk after adding NBDA: 4.5
  bacteria count 3 mo after adding NBDA: 28.9
  bacteria count 6 mo after adding NBDA: 7.8
  bacteria count 1 d after adding NBDA: 29.7
Bacteria [3]; [21]
  bacteria count 1 mo after adding NBDA: 25.2
  bacteria count 1 wk after adding NBDA: 7.2
  bacteria count 3 mo after adding NBDA: 13
  bacteria count 6 mo after adding NBDA: 39.9
  bacteria count 1 d after adding NBDA: 17.6
Bacteria [3]; [22]
  bacteria count 1 mo after adding NBDA: 83.4
  bacteria count 1 wk after adding NBDA: 79
  bacteria count 3 mo after adding NBDA: 13.3
  bacteria count 6 mo after adding NBDA: 63.8
  bacteria count 9 mo after adding NBDA: 35
  bacteria count 1 d after adding NBDA: 4.2
Bacteria [3]; [23]
  bacteria count 1 mo after adding NBDA: 31.6
  bacteria count 1 wk after adding NBDA: 180
  bacteria count 3 mo after adding NBDA: 7.4
  bacteria count 6 mo after adding NBDA: 11.2
  bacteria count 9 mo after adding NBDA: 57.7
  bacteria count 1 d after adding NBDA: 110
Bacteria [3]; PVB dispersion FX1, 32° C.
  bacteria count after 4 mo after addition of NBDA: 10.1
  bacteria count after 4 wk after addition of NBDA: 3.7
  bacteria count after 6 mo after addition of NBDA: 1
  bacteria count after 8 wk after addition of NBDA: 18.5
  bacteria count after 9 mo after addition of NBDA: 34
  bacteria count after 12 mo after addition of NBDA: 2.3
Bacteria [3]; PVB dispersion FX2, 32° C.
  bacteria count after 4 mo after addition of NBDA: 13.1
  bacteria count after 4 wk after addition of NBDA: 12.4
  bacteria count after 6 mo after addition of NBDA: 6.9
  bacteria count after 8 wk after addition of NBDA: 4.6
  bacteria count after 9 mo after addition of NBDA: 67.9
  bacteria count after 12 mo after addition of NBDA: 15.6
Bacteria [3]; PVB dispersion FX6, 32° C.
  bacteria count after 4 mo after addition of NBDA: 9.1
  bacteria count after 4 wk after addition of NBDA: 64.3
  bacteria count after 6 mo after addition of NBDA: 52.1
  bacteria count after 8 wk after addition of NBDA: 12.1
  bacteria count after 9 mo after addition of NBDA: 7.3
  bacteria count after 12 mo after addition of NBDA: 367
Bacteria [3]; PVB dispersion WX1, 32° C.
  bacteria count after 4 mo after addition of NBDA: 8.1
  bacteria count after 4 wk after addition of NBDA: 38.4
  bacteria count after 6 mo after addition of NBDA: 5
  bacteria count after 8 wk after addition of NBDA: 4.6
  bacteria count after 9 mo after addition of NBDA: 8.9
  bacteria count after 12 mo after addition of NBDA: 16.8
Bacteria [3]; PVB dispersion WX25, 32° C.
  bacteria count after 4 mo after addition of NBDA: 68
  bacteria count after 4 wk after addition of NBDA: 94
  bacteria count after 6 mo after addition of NBDA: 170
  bacteria count after 8 wk after addition of NBDA: 82
  bacteria count after 9 mo after addition of NBDA: 238
  bacteria count after 12 mo after addition of NBDA: 181
